Key:
[1] = molecular target: T1, human α1G T-type channels (Homo sapiens, UniProt O43497); experiment: T-type calcium channel block, whole cell patch clamp (α1G); format: cell-based; conditions: HEK cells stably expressing human α1G; mainly non-inactivated protocol; values above 10 μM represented as 10 μM, values below 0.30 μM represented as 0.30 μM
T1 construct: expressed in transfected cells; host or cells: HEK 293
Method in brief: (§1)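 Whole-cell patch clamp was run on HEK293 cells stably expressing human α1G or α1H. Cells were held at −110 mV and given a 1 s pre-pulse to −100 mV (non-inactivating protocol) before a 50 ms test pulse to −40 mV. Compounds were applied by gravity in external solution with 0.1-0.01% DMSO, and IC50 values are in μM, capped at 10 μM.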

[2] = molecular target: T2, human α1H T-type channels (Homo sapiens, UniProt O95180); experiment: T-type calcium channel block, whole cell patch clamp (α1H); format: cell-based; conditions: HEK cells stably expressing human α1H; mainly non-inactivated protocol; values above 10 μM represented as 10 μM
T2 construct: expressed in transfected cells; host or cells: HEK 293
T2 sequence (O95180 whole entry): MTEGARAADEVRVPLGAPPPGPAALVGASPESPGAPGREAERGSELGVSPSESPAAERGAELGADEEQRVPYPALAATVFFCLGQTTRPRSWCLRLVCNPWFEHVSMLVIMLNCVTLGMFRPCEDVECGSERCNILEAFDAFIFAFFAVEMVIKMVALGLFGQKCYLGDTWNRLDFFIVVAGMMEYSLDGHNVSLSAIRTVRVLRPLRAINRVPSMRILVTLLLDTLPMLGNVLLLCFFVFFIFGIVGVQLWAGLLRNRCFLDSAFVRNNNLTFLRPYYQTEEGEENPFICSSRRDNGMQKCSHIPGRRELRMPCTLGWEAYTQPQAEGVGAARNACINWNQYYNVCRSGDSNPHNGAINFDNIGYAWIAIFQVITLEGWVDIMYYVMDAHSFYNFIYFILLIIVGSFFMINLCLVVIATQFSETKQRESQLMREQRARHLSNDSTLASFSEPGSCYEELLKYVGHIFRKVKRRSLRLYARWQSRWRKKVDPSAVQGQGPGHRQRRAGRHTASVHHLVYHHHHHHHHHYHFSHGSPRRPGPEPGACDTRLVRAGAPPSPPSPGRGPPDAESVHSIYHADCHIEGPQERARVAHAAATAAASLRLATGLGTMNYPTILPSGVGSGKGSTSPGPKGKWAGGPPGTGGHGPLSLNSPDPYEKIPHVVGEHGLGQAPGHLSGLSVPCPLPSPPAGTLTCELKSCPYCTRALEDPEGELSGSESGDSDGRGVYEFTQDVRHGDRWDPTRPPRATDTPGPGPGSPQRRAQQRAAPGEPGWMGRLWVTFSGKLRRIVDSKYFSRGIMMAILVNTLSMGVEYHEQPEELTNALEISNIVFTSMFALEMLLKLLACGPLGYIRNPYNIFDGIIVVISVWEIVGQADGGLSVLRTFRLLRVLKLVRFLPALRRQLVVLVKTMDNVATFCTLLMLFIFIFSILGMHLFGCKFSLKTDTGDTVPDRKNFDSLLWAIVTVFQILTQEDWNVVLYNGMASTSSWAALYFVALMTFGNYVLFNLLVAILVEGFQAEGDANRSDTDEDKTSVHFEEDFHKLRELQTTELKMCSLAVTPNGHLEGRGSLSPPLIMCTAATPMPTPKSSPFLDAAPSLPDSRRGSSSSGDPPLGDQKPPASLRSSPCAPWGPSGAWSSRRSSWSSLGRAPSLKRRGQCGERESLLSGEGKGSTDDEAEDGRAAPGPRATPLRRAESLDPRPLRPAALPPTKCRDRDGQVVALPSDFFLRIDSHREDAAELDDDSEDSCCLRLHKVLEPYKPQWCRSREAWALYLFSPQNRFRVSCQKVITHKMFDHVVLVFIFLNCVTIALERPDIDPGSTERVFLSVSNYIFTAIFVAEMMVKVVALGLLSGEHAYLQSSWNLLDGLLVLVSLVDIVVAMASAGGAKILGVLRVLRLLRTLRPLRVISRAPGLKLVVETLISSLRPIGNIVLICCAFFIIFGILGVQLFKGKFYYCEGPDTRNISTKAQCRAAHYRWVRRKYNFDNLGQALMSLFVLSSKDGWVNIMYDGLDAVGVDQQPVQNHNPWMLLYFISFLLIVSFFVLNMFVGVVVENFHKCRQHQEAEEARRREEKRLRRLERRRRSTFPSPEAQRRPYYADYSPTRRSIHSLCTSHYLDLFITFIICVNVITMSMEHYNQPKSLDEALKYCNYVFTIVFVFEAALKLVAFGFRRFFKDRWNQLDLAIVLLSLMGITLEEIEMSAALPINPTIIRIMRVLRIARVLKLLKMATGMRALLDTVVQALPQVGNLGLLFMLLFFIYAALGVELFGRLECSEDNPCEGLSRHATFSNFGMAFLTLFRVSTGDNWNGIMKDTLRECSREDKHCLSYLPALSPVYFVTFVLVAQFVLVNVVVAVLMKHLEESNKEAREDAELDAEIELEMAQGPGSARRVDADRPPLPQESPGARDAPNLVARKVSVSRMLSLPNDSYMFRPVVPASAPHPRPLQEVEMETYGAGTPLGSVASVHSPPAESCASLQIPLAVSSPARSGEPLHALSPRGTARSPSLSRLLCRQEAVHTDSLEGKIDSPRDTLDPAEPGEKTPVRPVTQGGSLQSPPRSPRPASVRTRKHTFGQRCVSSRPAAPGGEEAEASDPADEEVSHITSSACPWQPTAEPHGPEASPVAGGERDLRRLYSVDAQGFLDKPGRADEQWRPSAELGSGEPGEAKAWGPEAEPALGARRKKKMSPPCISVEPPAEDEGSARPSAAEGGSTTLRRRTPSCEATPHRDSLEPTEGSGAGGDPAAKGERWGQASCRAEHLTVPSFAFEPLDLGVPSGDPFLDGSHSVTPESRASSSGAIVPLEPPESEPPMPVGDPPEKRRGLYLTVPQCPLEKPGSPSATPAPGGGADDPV
Method in brief: as §1

T1 sequence (O43497 whole entry): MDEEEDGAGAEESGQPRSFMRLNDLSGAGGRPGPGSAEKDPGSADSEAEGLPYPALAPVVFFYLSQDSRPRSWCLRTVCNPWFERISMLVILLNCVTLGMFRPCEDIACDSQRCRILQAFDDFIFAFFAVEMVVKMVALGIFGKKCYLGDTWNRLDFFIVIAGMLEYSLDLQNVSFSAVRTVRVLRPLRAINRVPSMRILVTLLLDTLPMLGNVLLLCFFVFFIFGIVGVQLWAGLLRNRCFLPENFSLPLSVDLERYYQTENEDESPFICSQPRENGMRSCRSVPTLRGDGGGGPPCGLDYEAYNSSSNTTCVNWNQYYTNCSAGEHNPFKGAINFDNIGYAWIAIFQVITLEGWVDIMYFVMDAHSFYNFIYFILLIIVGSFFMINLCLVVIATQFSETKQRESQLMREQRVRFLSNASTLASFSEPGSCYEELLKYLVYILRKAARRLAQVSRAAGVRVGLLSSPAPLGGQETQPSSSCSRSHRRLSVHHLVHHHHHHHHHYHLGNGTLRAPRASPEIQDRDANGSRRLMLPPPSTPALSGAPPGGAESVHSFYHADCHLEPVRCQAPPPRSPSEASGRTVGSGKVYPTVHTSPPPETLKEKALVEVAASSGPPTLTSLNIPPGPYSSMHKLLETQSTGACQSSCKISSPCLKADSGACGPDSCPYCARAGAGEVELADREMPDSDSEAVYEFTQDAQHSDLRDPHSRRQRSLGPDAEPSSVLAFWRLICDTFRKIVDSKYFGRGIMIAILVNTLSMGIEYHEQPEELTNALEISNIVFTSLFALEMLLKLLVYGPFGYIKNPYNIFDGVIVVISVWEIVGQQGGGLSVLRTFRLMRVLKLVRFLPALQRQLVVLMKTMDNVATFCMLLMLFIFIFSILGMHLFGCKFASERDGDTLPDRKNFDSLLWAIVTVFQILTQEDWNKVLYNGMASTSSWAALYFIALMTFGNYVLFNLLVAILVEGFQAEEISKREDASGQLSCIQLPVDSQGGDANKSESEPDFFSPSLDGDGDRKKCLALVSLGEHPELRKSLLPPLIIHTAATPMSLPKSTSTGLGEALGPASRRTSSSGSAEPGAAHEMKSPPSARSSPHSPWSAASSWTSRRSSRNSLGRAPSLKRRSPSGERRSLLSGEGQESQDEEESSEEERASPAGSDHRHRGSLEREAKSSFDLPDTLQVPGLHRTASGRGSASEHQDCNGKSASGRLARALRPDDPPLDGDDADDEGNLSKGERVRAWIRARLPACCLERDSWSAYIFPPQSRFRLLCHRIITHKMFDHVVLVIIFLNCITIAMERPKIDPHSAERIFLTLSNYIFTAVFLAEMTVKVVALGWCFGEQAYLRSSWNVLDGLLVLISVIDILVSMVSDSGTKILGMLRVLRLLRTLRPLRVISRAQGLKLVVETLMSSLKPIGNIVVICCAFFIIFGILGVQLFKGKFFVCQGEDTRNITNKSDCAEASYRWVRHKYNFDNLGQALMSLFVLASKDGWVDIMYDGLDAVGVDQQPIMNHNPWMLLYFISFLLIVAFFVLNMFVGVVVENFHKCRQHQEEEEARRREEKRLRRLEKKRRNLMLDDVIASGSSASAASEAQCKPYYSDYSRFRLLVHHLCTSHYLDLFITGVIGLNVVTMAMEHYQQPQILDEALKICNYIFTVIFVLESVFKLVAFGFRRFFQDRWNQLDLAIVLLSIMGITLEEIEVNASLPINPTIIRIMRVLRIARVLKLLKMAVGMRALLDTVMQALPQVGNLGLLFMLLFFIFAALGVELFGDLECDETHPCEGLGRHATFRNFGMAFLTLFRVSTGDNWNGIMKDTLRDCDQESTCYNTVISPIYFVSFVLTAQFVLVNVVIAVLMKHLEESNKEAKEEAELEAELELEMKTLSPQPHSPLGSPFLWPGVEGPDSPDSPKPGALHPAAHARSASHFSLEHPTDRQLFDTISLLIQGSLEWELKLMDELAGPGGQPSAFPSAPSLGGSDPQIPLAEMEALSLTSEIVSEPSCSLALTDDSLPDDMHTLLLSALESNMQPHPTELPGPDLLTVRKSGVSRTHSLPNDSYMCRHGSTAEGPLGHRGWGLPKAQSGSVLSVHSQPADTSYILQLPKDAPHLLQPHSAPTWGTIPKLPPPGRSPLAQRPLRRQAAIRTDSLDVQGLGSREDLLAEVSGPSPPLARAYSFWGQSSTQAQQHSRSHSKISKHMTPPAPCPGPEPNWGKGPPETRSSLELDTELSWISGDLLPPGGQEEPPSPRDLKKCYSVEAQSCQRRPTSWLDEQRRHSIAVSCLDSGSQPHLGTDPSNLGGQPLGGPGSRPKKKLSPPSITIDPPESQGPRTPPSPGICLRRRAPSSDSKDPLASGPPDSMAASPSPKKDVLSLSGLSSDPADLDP

Row | SMILES | IC50 [1] [nM] | IC50 [2] [nM]
1 | Cc1ccc(NC(=O)CN[C@H]2CC[C@@H](CNC(=O)c3cc(C(F)(F)F)cc(C(F)(F)F)c3)CC2)nc1 [Compound 73, N-((cis-4-(2-(5-methylpyridin-2-ylamino)-2-oxoethylamino)cyclohexyl)methyl)-3,5-bis(trifluoromethyl)benzamide] | 310 | 700
2 | CC(C)(C)NC(=O)CN[C@H]1CC[C@H](CNC(=O)c2cccc(OC(F)(F)F)c2)CC1 [Compound 189, N-(((1r,4r)-4-(2-(tert-butylamino)-2-oxoethylamino)cyclohexyl)methyl)-3-(trifluoromethoxy)benzamide] | 3660 | 1660
3 | CCN(CC)C(=O)CN[C@H]1CC[C@@H](CNC(=O)c2cc(C(F)(F)F)cc(C(F)(F)F)c2)CC1 [Compound 41, N-((cis-4-(2-(diethylamino)-2-oxoethylamino)cyclohexyl)methyl)-3,5-bis(trifluoromethyl)benzamide] | ≤ 300 | 330
4 | COCC(C)(C)N(C)C(=O)CN[C@H]1CC[C@@H](CNC(=O)c2cc(F)cc(OC)c2)CC1 [Compound 214, 3-fluoro-5-methoxy-N-(((1s,4s)-4-(2-((1-methoxy-2-methylpropan-2-yl)(methyl)amino)-2-oxoethylamino)cyclohexyl)methyl)benzamide] | 5820 | 710
5 | O=C(CCC(F)(F)F)NCCN[C@H]1CC[C@H](CNC(=O)c2cc(C(F)(F)F)cc(C(F)(F)F)c2)CC1 [Compound 102, N-((trans-4-(2-(4,4,4-trifluorobutanamido)ethylamino)cyclohexyl)methyl)-3,5-bis(trifluoromethyl)benzamide] | 970 | 1810
6 | COc1cc(F)cc(C(=O)NC[C@H]2CC[C@@H](NCC(=O)N(C)C3(C)CCC3)CC2)c1 [Compound 215, 3-fluoro-5-methoxy-N-(((1s,4s)-4-(2-(methyl(1-methylcyclobutyl)amino)-2-oxoethylamino)cyclohexyl)methyl)benzamide] | 1990 | 410
7 | COc1cc(F)cc(C(=O)NC[C@H]2CC[C@H](NCC(=O)NC(C)(C)C)CC2)c1 [Compound 206, N-(((1r,4r)-4-(2-(tert-butylamino)-2-oxoethylamino)cyclohexyl)methyl)-3-fluoro-5-methoxybenzamide] | 4420 | 1030
8 | CC1(NC(=O)CN[C@H]2CC[C@@H](CNC(=O)c3cc(F)cc(Cl)c3)CC2)CCC1 [Compound 193, 3-chloro-5-fluoro-N-(((1s,4s)-4-(2-(1-methylcyclobutylamino)-2-oxoethylamino)cyclohexyl)methyl)benzamide] | 720 | 230
9 | COc1ccccc1CN[C@H]1CC[C@@H](CNC(=O)c2cc(F)cc(C(F)(F)F)c2)CC1 [Compound 19, 3-fluoro-N-((cis-4-(2-methoxybenzylamino)cyclohexyl)methyl)-5-(trifluoromethyl)benzamide] | 530 | 1010
10 | CC(C)(C)c1nc(CNC[C@H]2CC[C@H](NC(=O)c3cc(C(F)(F)F)cc(C(F)(F)F)c3)CC2)no1 [Compound 89, N-(trans-4-(((5-tert-butyl-1,2,4-oxadiazol-3-yl)methylamino)methyl)cyclohexyl)-3,5-bis(trifluoromethyl)benzamide] | 1370 | 1950
11 | O=C(NC[C@H]1CC[C@@H](NCc2c(O)cccc2F)CC1)c1cc(F)cc(C(F)(F)F)c1 [Compound 22, 3-fluoro-N-((cis-4-(2-fluoro-6-hydroxybenzylamino)cyclohexyl)methyl)-5-(trifluoromethyl)benzamide] | 990 | 3080
12 | COc1ccccc1CN[C@H]1CC[C@H](CNC(=O)c2cc(C(F)(F)F)cc(C(F)(F)F)c2)CC1 [Compound 29, N-((trans-4-(2-methoxybenzylamino)cyclohexyl)methyl)-3,5-bis(trifluoromethyl)benzamide] | ≤ 300 | 800
13 | CC(C)(C)OC(=O)NCCN[C@H]1CC[C@@H](CNC(=O)c2cc(C(F)(F)F)cc(C(F)(F)F)c2)CC1 [Compound 98, tert-butyl 2-(cis-4-((3,5-bis(trifluoromethyl)benzamido)methyl)cyclohexylamino)ethylcarbamate] | 410 | 780
14 | COc1ccccc1CN[C@H]1CC[C@@H](CNC(=O)c2cc(C(F)(F)F)cc(C(F)(F)F)c2)CC1 [Compound 10, N-((cis-4-(2-methoxybenzylamino)cyclohexyl)methyl)-3,5-bis(trifluoromethyl)benzamide] | 470 | 320
15 | COc1cc(F)cc(C(=O)NC[C@H]2CC[C@H](NCC(=O)N3CCOCC3(C)C)CC2)c1 [Compound 208, N-(((1r,4r)-4-(2-(3,3-dimethylmorpholino)-2-oxoethylamino)cyclohexyl)methyl)-3-fluoro-5-methoxybenzamide] | ≥ 10000 | 4330
16 | O=C(NC[C@H]1CC[C@H](NCc2c(O)cccc2F)CC1)c1cc(C(F)(F)F)cc(C(F)(F)F)c1 [Compound 32, N-((trans-4-(2-fluoro-6-hydroxybenzylamino)cyclohexyl)methyl)-3,5-bis(trifluoromethyl)benzamide] | 330 | 3450
17 | CC1(NC(=O)CN[C@H]2CC[C@H](CNC(=O)c3cc(Cl)cc(Cl)c3)CC2)CCC1 [Compound 192, 3,5-dichloro-N-(((1r,4r)-4-(2-(1-methylcyclobutylamino)-2-oxoethylamino)cyclohexyl)methyl)benzamide] | 340 | 120
18 | COc1cc(F)cc(C(=O)NC[C@H]2CC[C@@H](NCC(=O)N(C)C(C)(C)C)CC2)c1 [Compound 200, N-(((1s,4s)-4-(2-(tert-butyl(methyl)amino)-2-oxoethylamino)cyclohexyl)methyl)-3-fluoro-5-methoxybenzamide] | 3350 | 470
19 | CC(C)(C)c1nc(CN[C@H]2CC[C@@H](CNC(=O)c3cc(C(F)(F)F)cc(C(F)(F)F)c3)CC2)no1 [Compound 51, N-((cis-4-((5-tert-butyl-1,2,4-oxadiazol-3-yl)methylamino)cyclohexyl)methyl)-3,5-bis(trifluoromethyl)benzamide] | 1150 | 820
20 | O=C(NC[C@H]1CC[C@@H](NC(=O)[C@@H]2CC[C@H](c3ccccc3)N2)CC1)c1cc(C(F)(F)F)cc(C(F)(F)F)c1 [Compound 127, (2S,5R)-N-(cis-4-((3,5-bis(trifluoromethyl)benzamido)methyl)cyclohexyl)-5-phenylpyrrolidine-2-carboxamide] | 1100 | 4930
21 | CC1(C)CCCN1C(=O)CN[C@H]1CC[C@@H](CNC(=O)c2cc(F)cc(Cl)c2)CC1 [Compound 195, 3-chloro-N-(((1s,4s)-4-(2-(2,2-dimethylpyrrolidin-1-yl)-2-oxoethylamino)cyclohexyl)methyl)-5-fluorobenzamide] | 1100 | 170
22 | COc1cc(F)cc(C(=O)NC[C@H]2CC[C@H](NCC(=O)NC3(C)CCC3)CC2)c1 [Compound 207, 3-fluoro-5-methoxy-N-(((1r,4r)-4-(2-(1-methylcyclobutylamino)-2-oxoethylamino)cyclohexyl)methyl)benzamide] | 3820 | 920
23 | O=C(C[C@H]1CC[C@H](NC(=O)[C@@H]2CCCN2)CC1)Nc1cc(C(F)(F)F)cc(C(F)(F)F)c1 [Compound 119, (S)-N-(trans-4-(2-(3,5-bis(trifluoromethyl)phenylamino)-2-oxoethyl)cyclohexyl)pyrrolidine-2-carboxamide] | 880 | 1530
24 | NC1(C(=O)N[C@H]2CC[C@H](CC(=O)Nc3cc(C(F)(F)F)cc(C(F)(F)F)c3)CC2)CCCCC1 [Compound 117, 1-amino-N-(trans-4-(2-(3,5-bis(trifluoromethyl)phenylamino)-2-oxoethyl)cyclohexyl)cyclohexanecarboxamide] | 1070 | ≥ 10000
25 | O=C(NC[C@H]1CC[C@@H](NCc2c(F)cccc2Cl)CC1)c1cc(C(F)(F)F)cc(C(F)(F)F)c1 [Compound 13, N-((cis-4-(2-chloro-6-fluorobenzylamino)cyclohexyl)methyl)-3,5-bis(trifluoromethyl)benzamide] | 460 | 2830
26 | CC(C)CNC(=O)CNC[C@H]1CC[C@H](NC(=O)c2cc(C(F)(F)F)cc(C(F)(F)F)c2)CC1 [Compound 93, N-(trans-4-((2-(isobutylamino)-2-oxoethylamino)methyl)cyclohexyl)-3,5-bis(trifluoromethyl)benzamide] | 1380 | 1710
27 | CC1(C)CCCN1C(=O)CN[C@H]1CC[C@H](CNC(=O)c2cc(F)cc(Cl)c2)CC1 [Compound 204, 3-chloro-N-(((1r,4r)-4-(2-(2,2-dimethylpyrrolidin-1-yl)-2-oxoethylamino)cyclohexyl)methyl)-5-fluorobenzamide] | 1580 | 650
28 | Cc1cc(CN[C@H]2CC[C@H](CNC(=O)c3cc(C(F)(F)F)cc(C(F)(F)F)c3)CC2)no1 [Compound 67, N-((trans-4-((5-methylisoxazol-3-yl)methylamino)cyclohexyl)methyl)-3,5-bis(trifluoromethyl)benzamide] | 5590 | 2890
29 | CC(C)NC(=O)CN[C@H]1CC[C@H](CNC(=O)c2cc(C(F)(F)F)cc(C(F)(F)F)c2)CC1 [Compound 74, N-((trans-4-(2-(isopropylamino)-2-oxoethylamino)cyclohexyl)methyl)-3,5-bis(trifluoromethyl)benzamide] | 2350 | 650
